The values that follow come from patent US6908911B1, “Antibacterial agents” (British Biotech Pharmaceuticals Limited, priority 1999, dated 2005).

In this experiment the test system is E. coli strain DH5α. The experiment is described as follows: Minimal inhibitory concentration (MIC) against E. coli. The conditions noted are these: Escherichia coli; 2×YT broth, 37° C., 18 hours; lowest drug concentration that inhibited visible growth. The format is cell-based. As to the method:
Minimal inhibitory concentrations (MIC) of inhibitors against E. coli strain DH5α (Genotype; F-φ80dlacZΔM15Δ(lacZYA-argF)U169 deoR recA1 endA1 hsdR17(rk^−,mk^+)phoA supE44λ^− thi-1 gyrA96 relA1) obtained from GibcoBRL Life Technologies, Enterobacter cloacae (American Type Culture Collection number 13047), Klebsiella pneumoniae (American Type Culture Collection number 13883) or Staphylococcus capitis (American Type Culture Collection number 35661) were determined as follows. Stock solutions of test compound (Compounds 1 and 2 from Examples 1 and 2 respectively (both isomer A)) and three standard laboratory antibiotics, carbenicillin (Sigma, catalogue No. C3416), kanamycin (Sigma, catalogue No. K4000) and chloramphenicol (Sigma, catalogue No. C1919), were prepared by dissolution of each compound in dimethylsulfoxide at 10 mM. […] Cell densities were adjusted to absorbance at 660 nm (A660)=0.1; the optical density-standardised preparations were diluted 1:1000 in 2×YT broth; and each well inoculated with 0.05 ml of the diluted bacteria. […] The MIC (μM) was recorded as the lowest drug concentration that inhibited visible growth.

Values after ≈ are worked out from the molar mass of the structure shown.

The MIC is the lowest concentration found to suppress growth.

`CCCC[C@H](CN(O)C=O)C(=O)N(C)C1CCN(C)CC1` [Example 7]: the MIC came out at 12.5 µM (≈ 3.74 µg/mL).
